The text below walks through data of ChEMBL document CHEMBL1154169, “Activity and molecular modeling of a new small molecule active against NNRTI-resistant HIV-1 mutants” (Eur J Med Chem, 2009).

For data set [1], the system named is Human immunodeficiency virus 1. As to the kind of experiment: Antiviral activity against HIV1 3B infected in human MT4 cells assessed as protection against virus-induced cytopathogenicity after 4 days by MTT assay. The data set is classed as functional, organism-based. Particulars: Human immunodeficiency virus 1, 3B, MT4, 96 h. Background: Cytopathic effects are the visible damage that an infection or toxin causes in cultured cells.

For the next data set, the system named is Yellow fever virus. In words: Antiviral activity against Yellow fever virus infected in BHK-21 cells assessed as protection against virus-induced cytopathogenicity after 2 to 3 days by MTT assay. It counts as functional, organism-based.
Data set [2] concerns Human immunodeficiency virus 1. In words: Antiviral activity against NNRTI-resistant HIV1 A17 with reverse transcriptase K103N, Y181C mutant infected in human MT4 cells assessed as protection against virus-induced cytopathogenicity after 4 days by MTT assay. The data set is classed as functional, organism-based. Conditions: Human immunodeficiency virus 1, A17, MT4, 96 h.
Another data set concerns Poliovirus 1. In words: Antiviral activity against Poliovirus Sb-1 infected in african green monkey Vero cells assessed as reduction of virus plaque formation after 3 days. It counts as functional, cell-based. Particulars: Enterovirus C, Sabin, 72 h.
For data set [3], the system named is Vesicular stomatitis virus. As to the kind of experiment: Antiviral activity against Vesicular stomatitis virus assessed as reduction of virus plaque formation by cell based assay. It counts as functional, organism-based.
For data set [4], the system named is Human immunodeficiency virus 1. As to the kind of experiment: Antiviral activity against HIV1 EFV with reverse transcriptase K103R, V179D, P225H mutant infected in human MT4 cells assessed as protection against virus-induced cytopathogenicity after 4 days by MTT assay. Particulars: Human immunodeficiency virus 1, EFV, MT4, 96 h. The data set is classed as functional, organism-based.

The test system of data set [5] is Mammalian orthoreovirus 1. In words: Antiviral activity against Reovirus 1 assessed as protection against virus-induced cytopathogenicity by cell based MTT assay. The data set is classed as functional, organism-based.
Data set [6] has as its system Human immunodeficiency virus 1. In words: Antiviral activity against NNRTI-resistant HIV1 N119 with reverse transcriptase Y181C mutant infected in human MT4 cells assessed as protection against virus-induced cytopathogenicity after 4 days by MTT assay. It counts as functional, organism-based. Particulars: Human immunodeficiency virus 1, N119, MT4, 96 h.
Data set [7] is described as follows: Cytotoxicity against human MT4 cells assessed as reduction of cell viability after 4 days by MTT assay. The data set is classed as cell-based. On the technique in general: Tetrazolium dyes change colour on reduction, which living cells bring about.
For data set [8], the system named is Bovine viral diarrhea virus 1. As to the kind of experiment: Antiviral activity against Bovine viral diarrhea virus infected in MDBK cells assessed as protection against virus-induced cytopathogenicity after 2 to 3 days by MTT assay. Conditions: Bovine viral diarrhea virus isolates and strains. The data set is classed as functional, organism-based.
The test system of the next data set is Vaccinia virus. As to the kind of experiment: Antiviral activity against Vaccinia virus assessed as reduction of virus plaque formation by cell based assay. The data set is classed as functional, organism-based. Conditions: Orthopoxvirus vaccinia.
The test system of data set [9] is Respiratory syncytial virus. As to the kind of experiment: Antiviral activity against Respiratory syncytial virus assessed as reduction of virus plaque formation by cell based assay. It counts as functional, organism-based. Conditions: human respiratory syncytial virus.
A further data set concerns Coxsackievirus B2. As to the kind of experiment: Antiviral activity against Coxsackievirus B2 infected in african green monkey Vero cells assessed as reduction of virus plaque formation after 3 days. Conditions: Enterovirus B, 72 h. It counts as functional, organism-based.
Data set [10] concerns Human immunodeficiency virus. In words: Inhibition of HIV reverse transcriptase RNA-dependent polymerase activity after 30 mins by fluorescent microplate assay.

In general, EC50 refers to the concentration at which the effect is half-maximal. What is called CC50 is the concentration at which the toxic effect on the cells reaches its halfway point. Regarding `[O-][n+]1n[nH]c2c(Cl)c3ncccc3cc21`, the EC50 (in [1]; in the data set on Yellow fever virus; in [2]; in the data set with Poliovirus 1; in data set [3]; in data set [4]) was above 100 µM in each case. In addition, the EC50 (in data set [5]; in data set [6]; in data set [8]; in the data set with Vaccinia virus; in [9]; in the data set on Coxsackievirus B2) was above 100 µM in each case. For the same compound, in [7], the CC50 at 96 h was above 100 µM.

Turning to `c1cnc2cc3[nH]nnc3cc2c1`, the EC50 (in data set [1]; with Yellow fever virus; in [2]; in the data set with Poliovirus 1; in data set [3]; in data set [4]) was above 100 µM each time. The EC50 (in data set [5]; in [6]; in data set [8]; in the data set with Vaccinia virus; in data set [9]; with Coxsackievirus B2) was above 100 µM in each case. Also, the CC50 at 96 h in data set [7] is above 100 µM.

Turning to `c1cnc2c(c1)Cc1nn[nH]c1C2`, the concentration for a half-maximal effect (EC50) (in data set [1]; with Yellow fever virus; in data set [2]; in the data set with Poliovirus 1; in [3]; in [4]) was above 100 µM each time. In addition, the EC50 (in data set [5]; in data set [6]; in data set [8]; in the data set with Vaccinia virus; in data set [9]; with Coxsackievirus B2) was above 100 µM each time. In addition, the CC50 at 96 h in data set [7] was above 100 µM.

`c1c2c(cc3[nH]nnc13)NCCC2`: the EC50 (in data set [1]; in the data set with Yellow fever virus; in data set [2]; with Poliovirus 1; in data set [3]; in data set [4]) was above 100 µM throughout. For the same compound, the EC50 (in [5]; in data set [6]; in data set [8]; with Vaccinia virus; in data set [9]; in the data set on Coxsackievirus B2) was above 100 µM throughout. In [7], the CC50 at 96 h is above 100 µM.

For the compound `[O-][n+]1n[nH]c2c1Cc1cccnc1C2`, the EC50 in [1] is 12 µM; in the data set with Yellow fever virus, above 100 µM; in [2] it was 10 µM; in the data set with Poliovirus 1, above 100 µM; in data set [3], above 100 µM; in data set [4], 9 µM. The EC50 is above 100 µM in data set [5]; 4 µM in data set [6]; above 100 µM in data set [8]; above 100 µM with Vaccinia virus; above 100 µM in data set [9]; above 100 µM with Coxsackievirus B2. The Activity entry in [10] was “Dose-dependent effect”. Further, the CC50 at 96 h in data set [7] was above 100 µM.

As for `Cc1ccnc2c1NC(=O)c1cccnc1N2C1CC1` [NEVIRAPINE], the EC50 is above 20 µM in data set [2], above 20 µM in [4] and 7 µM in data set [6]. Moreover, in [7], the CC50 at 96 h was above 100 µM.

With `O=C1Nc2ccc(Cl)cc2[C@@](C#CC2CC2)(C(F)(F)F)O1` [EFAVIRENZ], the EC50 amounted to 0.06 µM in data set [2] and 7 µM in [4]. Moreover, the CC50 at 96 h in data set [7] came to 45 µM.

As for `CCOn1nnc2c1Cc1cccnc1C2`, the EC50 (in data set [1]; in the data set with Yellow fever virus; in data set [2]; in the data set with Poliovirus 1; in data set [3]; in data set [4]) was above 100 µM each time. For the same compound, the EC50 (in data set [5]; in data set [6]; in [8]; in the data set with Vaccinia virus; in data set [9]; with Coxsackievirus B2) was above 100 µM each time. Also, the CC50 at 96 h in [7] was above 100 µM.
